Structures are written as SMILES.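 Following 48 hours of exposure in 96-well plates, responses at five concentrations were used to interpolate endpoints linearly. Abbreviation: GI50, concentration required for 50% inhibition of growth. TGI is the concentration that stops growth completely.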

Test systems include SK-MEL-28 melanoma; MALME-3M melanoma; OVCAR-8 ovarian; SF-268 CNS; HCT-116 colon; SF-539 CNS; 786-0 renal; UO-31 renal; M14 melanoma; HCT-15 colon.
What all share (assay): growth of human tumour cells (NCI), 48 h

As to `CCCCN=C(N)c1ccc(OCCSCCOc2ccc(C(N)=NCCCC)cc2)cc1`, the GI50 was 20 µM in the assay on SK-MEL-28 melanoma; 2.97 µM with MALME-3M melanoma; 10.5 µM in the assay on OVCAR-8 ovarian; 5.32 µM with SF-268 CNS; 4.46 µM in the assay on HCT-116 colon; 5.59 µM in the assay on SF-539 CNS. Besides, the GI50 in the assay with 786-0 renal was > 100 µM; in the assay on UO-31 renal it was > 100 µM; in the assay with M14 melanoma, 28.4 µM; in the assay on HCT-15 colon, > 100 µM. Besides, the TGI is > 100 µM in the assay on SK-MEL-28 melanoma; 26.4 µM in the assay with MALME-3M melanoma; > 100 µM in the assay with OVCAR-8 ovarian; > 100 µM with SF-268 CNS; > 100 µM with HCT-116 colon; > 100 µM in the assay on SF-539 CNS. For the same molecule, the TGI with 786-0 renal, with UO-31 renal, with M14 melanoma and with HCT-15 colon was > 100 µM throughout.

As to `O=C(c1cccc(O)c1O)c1cn(Cc2ccc(F)cc2)c2cccc(O)c12`, the GI50 was 6.01 µM with SK-MEL-28 melanoma; 4.83 µM with MALME-3M melanoma; 3.56 µM with OVCAR-8 ovarian; 3.51 µM in the assay on SF-268 CNS; 3.28 µM with HCT-116 colon; 2.49 µM in the assay on SF-539 CNS. Further, the GI50 in the assay with 786-0 renal was 7.46 µM; in the assay with UO-31 renal it was 1.14 µM; in the assay with M14 melanoma it was 3.43 µM; in the assay on HCT-15 colon, 1.16 µM. For the same molecule, the TGI with SK-MEL-28 melanoma worked out at 19.5 µM; in the assay on MALME-3M melanoma, 22 µM; in the assay on OVCAR-8 ovarian it was 18.9 µM; in the assay with SF-268 CNS it was 16.2 µM; with HCT-116 colon it was 17.1 µM; in the assay with SF-539 CNS, 11.2 µM. Further, the TGI with 786-0 renal came to 20.8 µM; in the assay on UO-31 renal it was 5.24 µM; with M14 melanoma it was 13.4 µM; with HCT-15 colon it was 14.8 µM.

Turning to `CCN1C(=O)CNc2ncc(-c3ccc(-c4ncn[nH]4)nc3C)nc21`, the GI50 in the assay with SK-MEL-28 melanoma was 0.115 µM; in the assay on MALME-3M melanoma, 0.0227 µM; in the assay with OVCAR-8 ovarian, 0.385 µM; in the assay on SF-268 CNS, 0.235 µM; in the assay with HCT-116 colon it was 0.277 µM; in the assay on SF-539 CNS, 0.144 µM. Also, the GI50 in the assay on 786-0 renal was 0.117 µM; in the assay on UO-31 renal, 0.0248 µM; with M14 melanoma it was 0.0917 µM; in the assay on HCT-15 colon, 0.202 µM. In addition, the TGI worked out at 1.44 µM in the assay with SK-MEL-28 melanoma; 0.221 µM in the assay on MALME-3M melanoma; 5.23 µM in the assay with OVCAR-8 ovarian; 10.2 µM in the assay with SF-268 CNS; 4.62 µM in the assay on HCT-116 colon; 0.859 µM with SF-539 CNS. The TGI came out at 4.35 µM with 786-0 renal, 0.599 µM in the assay with UO-31 renal, 2.79 µM with M14 melanoma and 10.9 µM in the assay with HCT-15 colon.

As for `COc1ccc2c(c1)CCC1C3(CCCC21C)OCCO3` (stereo not given), the TGI with SK-MEL-28 melanoma amounted to 35.3 µM; in the assay on MALME-3M melanoma, 58.8 µM; with OVCAR-8 ovarian, 50.4 µM; with SF-268 CNS it was 19.9 µM; with HCT-116 colon it was 30.5 µM; in the assay on SF-539 CNS, 26.3 µM. Besides, the TGI in the assay on 786-0 renal came out at 38.1 µM; with UO-31 renal it was 31 µM; with M14 melanoma, 36.3 µM; in the assay with HCT-15 colon it was 34.2 µM.

For `COC(=O)C1=NC(=S)NC(c2ccccc2)C1c1nc2ccccc2s1` (stereo not given), the TGI in the assay with SK-MEL-28 melanoma, in the assay on MALME-3M melanoma, with OVCAR-8 ovarian, with SF-268 CNS, in the assay on HCT-116 colon and in the assay on SF-539 CNS was > 100 µM each time. Besides, the TGI in the assay with 786-0 renal, in the assay with UO-31 renal, in the assay with M14 melanoma and in the assay with HCT-15 colon was > 100 µM in each case.

`CC1=C2C(=O)O[C@@H](c3ccoc3)[C@]2(C)CCC1`: the TGI in the assay with SK-MEL-28 melanoma, in the assay with MALME-3M melanoma, in the assay on OVCAR-8 ovarian, with SF-268 CNS, in the assay with HCT-116 colon and in the assay with SF-539 CNS was > 100 µM each time. Besides, the TGI in the assay on 786-0 renal, in the assay on UO-31 renal, with M14 melanoma and with HCT-15 colon was > 100 µM throughout.

Regarding `Cc1cccc(NC(=O)C(=O)Cc2nc3ccccc3[nH]c2=O)c1C`, the TGI in the assay with SK-MEL-28 melanoma, in the assay on MALME-3M melanoma, with OVCAR-8 ovarian, in the assay with SF-268 CNS, in the assay on HCT-116 colon and in the assay with SF-539 CNS was > 100 µM each time. The TGI with 786-0 renal, in the assay on UO-31 renal, in the assay on M14 melanoma and in the assay with HCT-15 colon was > 100 µM each time.

Consider `COc1cc(NC(=O)c2cc(O)c(CC=C(C)C)c(O)c2)cc2c1O[C@]1(C)CC[C@@H](O)C(C)(C)[C@H]1C2`, for which the GI50 in the assay with SK-MEL-28 melanoma was 2.31 µM; in the assay on MALME-3M melanoma, 6.24 µM; in the assay on OVCAR-8 ovarian, 6.34 µM; in the assay with SF-268 CNS it was 4.65 µM; with HCT-116 colon, 3.37 µM; with SF-539 CNS, 0.659 µM. Moreover, the GI50 in the assay on 786-0 renal is 0.567 µM; in the assay on UO-31 renal it was 2.42 µM; in the assay on M14 melanoma, 2.94 µM; in the assay on HCT-15 colon it was 4.09 µM. For the same molecule, the TGI worked out at 16.8 µM in the assay on SK-MEL-28 melanoma; 24.3 µM in the assay with MALME-3M melanoma; 33.7 µM in the assay on OVCAR-8 ovarian; 72.6 µM with SF-268 CNS; 15.4 µM with HCT-116 colon; 4.02 µM in the assay with SF-539 CNS. The TGI was determined as 7.24 µM in the assay on 786-0 renal, 8.18 µM in the assay with UO-31 renal, 13.5 µM with M14 melanoma and 21.3 µM in the assay on HCT-15 colon.

For the molecule `CCOC(=O)Sc1ncnc2nc[nH]c12`, the GI50 is 43.7 µM with SK-MEL-28 melanoma; 27.1 µM in the assay on MALME-3M melanoma; 3.08 µM with OVCAR-8 ovarian; 3.89 µM in the assay with SF-268 CNS; 2.31 µM with HCT-116 colon; 2.35 µM in the assay on SF-539 CNS. The GI50 in the assay on 786-0 renal is 2.31 µM; in the assay on UO-31 renal, 4.14 µM; with M14 melanoma it was 0.408 µM; with HCT-15 colon it was 2.86 µM. Besides, the TGI in the assay on SK-MEL-28 melanoma, in the assay on MALME-3M melanoma, with OVCAR-8 ovarian, with SF-268 CNS, in the assay on HCT-116 colon and in the assay with SF-539 CNS was > 100 µM in each case. The TGI with 786-0 renal, with UO-31 renal, in the assay on M14 melanoma and with HCT-15 colon was > 100 µM in each case.

These data come from PubChem BioAssay (NCI).
